According to paper PMC9959244, “Revisiting the Solubility–Permeability Relationship with Hydrophobic Drug Umifenovir in Pluronic Solutions: Impact of pH and Co-Solvent” (Pharmaceutics, 2023):

Columns and labels:
[1] = Quantitative parameters of UMF solubilization by F-127 micelles (from phase solubility plots); format: physicochemical
Description: To elucidate the solubilizing potential of the micelles of F-127 towards UMF, we determined the solubilizing capacity (χ) equal the amount of UMF solubilized by one mole of F-127 using the equation given in Stephenson et al.:(2) χ=(S2−S20)/(Cpolym−cmc)=(SUMF−SUMF0)/(CF−127−cmc) where S2 and S20 are the total compound solubility at a specific polymer concentration in the solution and the intrinsic solubility, respectively, Cpolym is the polymer (F-127) concentration, cmc is the polymer critical micelle concentration, expressed in mol∙L^−1, and (Cpolym—cmc) is the concentration of the micelles. […] Solubilizing capacities were determined from the slopes of the dependences illustrated in Figure S2. […]
Micelle formation occurs above the critical micelle concentration and is accompanied by the removal of the hydrophobic tails of F-127 molecules from the aqueous surroundings, the association of monomers and the decrease of the free energy of the entire system. […] In order to quantify the apparent free energy of solubilization (transferring of the compound from the aqueous to the micellar phase) at 310.15 K, the following equation was applied:(4) ΔGS310.15K=−RT⋅lnKm/w where ΔGS310.15K is the apparent solubilization free energy, R is the universal gas constant, and Km/w is the micelle/water partition coefficient of UMF. […]

[2] = In vitro permeability, Franz diffusion cell; format: in vitro ADME
Method: The permeability coefficients of UMF were measured in a Franz diffusion cell of a vertical type (PermeGear, Inc., Hellertown, PA, USA) at 310.15 ± 0.1 K. The experimental setup is fully described and illustrated in our previous study. All the experiments were carried out with the help of a regenerated cellulose membrane with a molecular weight cut-off (MWCO) of 12–14 kDa (Standard Grade RC Dialysis Membrane, Flat Width 45 mm) pretreated with water for 30 min and dried under air. A cellulose membrane MWCO 6–8 kDa was additionally used for several experiments. The membrane effective surface area was 0.785 cm^2. It was placed between the donor (7 mL of the stock UMF solution) and acceptor (pure solvent without UMF—blank solution) chambers. In the case of the pH 2.0 donor solution, the blank solution at pH 7.4 was applied in the acceptor chamber in order to simulate the compound transfer to the blood plasma. Samples of 0.5 mL were withdrawn every 30 min from the acceptor chamber and replaced with an equal amount of pure buffer pH 7.4. The solutions were analyzed using a plate-type spectrophotometer (Spectramax 190; Molecular devices, Molecular Devices Corporation, California, USA) and a 96-well UV black plate (Costar). The plot of the cumulative amount of the compound (Q) permeated through the membrane of effective surface area (A) versus time (t) was constructed and the apparent permeability coefficient (Papp) was calculated by the equation:Papp = J/C0(1) where J is the flux through the membrane derived as a slope of the permeation plot (J = dQ/(A·dt)), and C0 is the UMF concentration in the donor solution. Papp values were taken as an average of at least 3 or more experiments.

[3] = PXRD analysis of solid residuals after solubility experiments; format: physicochemical
Method: The powder XRD data were recorded under ambient conditions on a D2 Phaser (Bragg Brentano) diffractometer (Bruker AXS, Karlsruhe, Germany) with a copper X-ray source (λCuKα1 = 1.5406Å) and a high-resolution position-sensitive LYNXEYE XE-T detector. The samples were placed into the plate sample holders and rotated at a speed of 15 rpm during the data acquisition.
In order to trace possible transformations of the UMF base, the solid residuals left after each solubility experiment were isolated, dried under air and subjected to PXRD analysis together with the raw UMF base and UMF∙HCl∙H2O. […] Importantly, all the parameters obtained for the acidic solutions (solubility, permeability, micellization, and aggregation characteristics) refer to UMF∙HCl∙H2O, in spite of the fact that initially the UMF base was subjected to the experiments.

[4] = set-up: method as in earlier work; conditions: cited from earlier work

CCOC(=O)c1c(CSc2ccccc2)n(C)c2cc(Br)c(O)c(CN(C)C)c12 [UMF, 6-bromo-4-dimethylaminomethyl-5-hydroxy-1-methyl-2-phenylthiomethyl indole-3-carboxylic acid ethyl ester]
Higher solubilizing potential of F-127 (Km/w) towards UMF base at pH 7.4 vs UMF∙HCl∙H2O at pH 2.0 [1]: approximately 5.4 fold
logKm/w ([1]; UMF-buffer pH 7.4-pluronic F-127 system): 3.88
Permeability coefficient in pure buffer pH 7.4 greater than in pH 2.0 [2]: 2.1 fold
Permeability increase by EtOH in buffer pH 7.4 ([2]; 10% EtOH): 1.4 fold
Permeability increase by EtOH in buffer pH 7.4 ([2]; 20% EtOH): 1.2 fold
Permeability reduction by 4.0% F-127 vs pure buffer ([2]; buffer pH 7.4): 2.35 fold
Papp in 20% EtOH + 1.5% F-127 lower than in buffer pH 7.4 + 1.5% F-127 ([2]; pH 7.4): 5.1 fold
Papp in 20% EtOH + 1.5% F-127 lower than in buffer pH 7.4 +20% EtOH ([2]; pH 7.4): 10.8 fold
Papp in 20% EtOH + 1.5% F-127 lower than in pure buffer pH 7.4 ([2]; pH 7.4): 9.1 fold
Solid phase after dissolution (PXRD) ([3]; acidic buffer (pH 2.0)): transformed into the apparently more stable hydrochloride monohydrate
Solid phase after dissolution (PXRD) ([3]; all the systems with buffer pH 7.4): No transformations
pKa [4]: 6.0
